Laboratory results: US9738634B2, “Heterocyclic amide compound and herbicide” (SYNGENTA PARTICIPATIONS AG, priority 2013, dated 2017)

Columns and labels:
Format in all cases: in vivo
Indian mallow [1] = assay: Test Example 4: weedkilling efficacy by foliar treatment; K: Indian mallow; details: treatment dosage 315 g/ha
Procedure, shortened: (§1)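 Seeds are spot-sown into sterilized diluvial soil and covered with about 1.5 cm of soil. After 14 days' greenhouse growth at 25 to 30° C, plants are sprayed on stems and leaves with diluted emulsion at the stated g/ha rate, then scored at 3 weeks.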

green foxtail [2] = assay: Test Example 4: weedkilling efficacy by foliar treatment; E: green foxtail; details: treatment dosage 315 g/ha
Procedure, shortened: as §1

wheat [3] = assay: Test Example 4: foliar treatment, effect on crop; e: wheat; details: treatment dosage 315 g/ha
Procedure, shortened: as §1

transplanted rice = assay: Test Example 1: preemergent weed treatment in the submerged state, effect on crop; a: transplanted rice; details: treatment dosage 252 g/ha
Procedure, shortened: (§2)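 Pre-emergence paddy test: weed seeds sown in submerged alluvial soil (4 cm water), 2.5-leaf rice transplanted, water-diluted emulsion applied to water surface at sowing at stated g/ha. Scored at 3 weeks, greenhouse 25–30 °C.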

corn [4] = assay: Test Example 3: soil treatment, effect on crop; c: corn; details: treatment dosage 315 g/ha
Procedure, shortened: (§3)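 Crop and weed responses were judged three weeks after a uniform surface spray of the water-diluted emulsion at the given g/ha rate. Seeds sat beneath about 1.5 cm of sterilized diluvial soil, and boxes stood in a greenhouse at 25 to 30° C.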

soybean [5] = assay: Test Example 4: foliar treatment, effect on crop; d: soybean; details: treatment dosage 315 g/ha
Procedure, shortened: as §1

fig-leafed goosefoot [6] = assay: Test Example 3: weedkilling efficacy through soil treatment; M: fig-leafed goosefoot; details: treatment dosage 315 g/ha
Procedure, shortened: as §3

chickweed [7] = assay: Test Example 4: weedkilling efficacy by foliar treatment; N: chickweed; details: treatment dosage 315 g/ha
Procedure, shortened: as §1

catchweed [8] = assay: Test Example 3: weedkilling efficacy through soil treatment; O: catchweed; details: treatment dosage 315 g/ha
Source text: Weedkilling Efficacy Test Through Soil Treatment
Sterilized diluvial soil was introduced into 21 cm long, 13 cm wide, 7 cm deep plastic boxes, and seeds of crabgrass, green foxtail, barnyard grass, wild oat, black-grass, Italian ryegrass, common wind-grass, Indian mallow, redroot pigweed, fig-leafed goosefoot, chickweed, catchweed, birds-eye speedwell, corn, soybean, rice, wheat, beet and rapeseed were each spot-sown, and covered with about 1.5 cm of soil. Next, emulsions of compounds of the present invention prepared according to compounding example 2 were diluted with water to give the specified dosages, and applied uniformly onto the soil surface with a small sprayer. The plants were grown by placing the plastic boxes in a greenhouse at 25 to 30° C., and 3 weeks after the pesticide treatment the effect on each type of plant was investigated on the basis of the assessment criteria of test example 1.
A: barnyard grass, B: bulrush, C: oval-leafed pondweed, D: crabgrass, E: green foxtail, F: barnyard grass, G: wild oat, H: black-grass, I: Italian ryegrass, J: common wind-grass, K: Indian mallow, L: redroot pigweed, M: fig-leafed goosefoot, N: chickweed, O: catchweed, p: birds-eye speedwell, a: transplanted rice, b: directly sown rice, c: corn, d: soybean, e: wheat, f: beet, g: rapeseed
Further, pesticide dosage (g/ha) indicates the concentration regulated such that treatment was with only the stated number of grams (g), when calculated per hectare (ha).

directly sown rice [9] = assay: Test Example 3: soil treatment, effect on crop; b: directly sown rice; details: treatment dosage 315 g/ha
Procedure, shortened: as §3

beet [10] = assay: Test Example 4: foliar treatment, effect on crop; f: beet; details: treatment dosage 315 g/ha
Procedure, shortened: as §1

directly sown rice [11] = assay: Test Example 4: foliar treatment, effect on crop; b: directly sown rice; details: treatment dosage 315 g/ha
Procedure, shortened: as §1

beet [12] = assay: Test Example 3: soil treatment, effect on crop; f: beet; details: treatment dosage 315 g/ha
Procedure, shortened: as §3

black-grass [13] = assay: Test Example 4: weedkilling efficacy by foliar treatment; H: black-grass; details: treatment dosage 315 g/ha
Procedure, shortened: as §1

bulrush [14] = assay: Test Example 1: weedkilling efficacy, preemergent weed treatment in the submerged state; B: bulrush; details: treatment dosage 252 g/ha
Procedure, shortened: as §2

corn [15] = assay: Test Example 4: foliar treatment, effect on crop; c: corn; details: treatment dosage 315 g/ha
Procedure, shortened: as §1

soybean [16] = assay: Test Example 3: soil treatment, effect on crop; d: soybean; details: treatment dosage 315 g/ha
Procedure, shortened: as §3

birds-eye speedwell [17] = assay: Test Example 4: weedkilling efficacy by foliar treatment; p: birds-eye speedwell; details: treatment dosage 315 g/ha
Procedure, shortened: as §1

catchweed [18] = assay: Test Example 4: weedkilling efficacy by foliar treatment; O: catchweed; details: treatment dosage 315 g/ha
Procedure, shortened: as §1

black-grass [19] = assay: Test Example 3: weedkilling efficacy through soil treatment; H: black-grass; details: treatment dosage 315 g/ha
Procedure, shortened: as §3

crabgrass [20] = assay: Test Example 4: weedkilling efficacy by foliar treatment; D: crabgrass; details: treatment dosage 315 g/ha
Procedure, shortened: as §1

Italian ryegrass [21] = assay: Test Example 3: weedkilling efficacy through soil treatment; I: Italian ryegrass; details: treatment dosage 315 g/ha
Procedure, shortened: as §3

barnyard grass [22] = assay: Test Example 1: weedkilling efficacy, preemergent weed treatment in the submerged state; A: barnyard grass; details: treatment dosage 252 g/ha
Procedure, shortened: as §2

wheat [23] = assay: Test Example 3: soil treatment, effect on crop; e: wheat; details: treatment dosage 315 g/ha
Procedure, shortened: as §3

oval-leafed pondweed [24] = assay: Test Example 1: weedkilling efficacy, preemergent weed treatment in the submerged state; C: oval-leafed pondweed; details: treatment dosage 252 g/ha
Procedure, shortened: as §2

redroot pigweed [25] = assay: Test Example 3: weedkilling efficacy through soil treatment; L: redroot pigweed; details: treatment dosage 315 g/ha
Procedure, shortened: as §3

chickweed [26] = assay: Test Example 3: weedkilling efficacy through soil treatment; N: chickweed; details: treatment dosage 315 g/ha
Procedure, shortened: as §3

Italian ryegrass [27] = assay: Test Example 4: weedkilling efficacy by foliar treatment; I: Italian ryegrass; details: treatment dosage 315 g/ha
Procedure, shortened: as §1

green foxtail [28] = assay: Test Example 3: weedkilling efficacy through soil treatment; E: green foxtail; details: treatment dosage 315 g/ha
Procedure, shortened: as §3

fig-leafed goosefoot [29] = assay: Test Example 4: weedkilling efficacy by foliar treatment; M: fig-leafed goosefoot; details: treatment dosage 315 g/ha
Procedure, shortened: as §1

crabgrass [30] = assay: Test Example 3: weedkilling efficacy through soil treatment; D: crabgrass; details: treatment dosage 315 g/ha
Procedure, shortened: as §3

bulrush [31] = assay: Test Example 2: weedkilling efficacy, growth period weed treatment in the submerged state; B: bulrush; details: treatment dosage 252 g/ha
Procedure, shortened: (§4)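 Seedlings at 1-2 leaves in 4 cm-deep submerged alluvial soil received emulsion formulations on the water surface, dosed per hectare; effects were judged 3 weeks on.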

Indian mallow [32] = assay: Test Example 3: weedkilling efficacy through soil treatment; K: Indian mallow; details: treatment dosage 315 g/ha
Procedure, shortened: as §3

oval-leafed pondweed [33] = assay: Test Example 2: weedkilling efficacy, growth period weed treatment in the submerged state; C: oval-leafed pondweed; details: treatment dosage 252 g/ha
Procedure, shortened: as §4

redroot pigweed [34] = assay: Test Example 4: weedkilling efficacy by foliar treatment; L: redroot pigweed; details: treatment dosage 315 g/ha
Procedure, shortened: as §1

birds-eye speedwell [35] = assay: Test Example 3: weedkilling efficacy through soil treatment; p: birds-eye speedwell; details: treatment dosage 315 g/ha
Procedure, shortened: as §3

barnyard grass [36] = assay: Test Example 2: weedkilling efficacy, growth period weed treatment in the submerged state; A: barnyard grass; details: treatment dosage 252 g/ha
Procedure, shortened: as §4

In the case of `CC1=C(c2ccccc2)C(=O)N(C(C)(C)C(=O)Nc2nc(-c3ccccc3)ns2)CO1` [B-1-17], the “K (Indian mallow) weedkilling efficacy grade” value (Indian mallow [1]) is reported as 5 (weed kill ratio 90% or more, (practically complete withering)), the “E (green foxtail) weedkilling efficacy grade” value (green foxtail [2]) is reported as 5 (weed kill ratio 90% or more, (practically complete withering)) and the “e (wheat) effect on crop grade” value (wheat [3]) is reported as 0 (weed kill ratio 5% or less (practically no effect)). The “a (transplanted rice) effect on crop grade” value (transplanted rice) was 0 (weed kill ratio 5% or less (practically no effect)), the “c (corn) effect on crop grade” value (corn [4]) was 0 (weed kill ratio 5% or less (practically no effect)) and the “d (soybean) effect on crop grade” value (soybean [5]) was 0 (weed kill ratio 5% or less (practically no effect)). For the same compound, the “M (fig-leafed goosefoot) weedkilling efficacy grade” value (fig-leafed goosefoot [6]) was 5 (weed kill ratio 90% or more, (practically complete withering)), the “N (chickweed) weedkilling efficacy grade” value (chickweed [7]) was 3 (weed kill ratio 40% or more, less than 70%) and the “O (catchweed) weedkilling efficacy grade” value (catchweed [8]) was 5 (weed kill ratio 90% or more, (practically complete withering)). The “b (directly sown rice) effect on crop grade” value (directly sown rice [9]) was 0 (weed kill ratio 5% or less (practically no effect)), the “f (beet) effect on crop grade” value (beet [10]) was 0 (weed kill ratio 5% or less (practically no effect)) and the “b (directly sown rice) effect on crop grade” value (directly sown rice [11]) was 4 (weed kill ratio 70% or more, less than 90%). For the same compound, the “f (beet) effect on crop grade” value (beet [12]) was 0 (weed kill ratio 5% or less (practically no effect)), the “H (black-grass) weedkilling efficacy grade” value (black-grass [13]) was 5 (weed kill ratio 90% or more, (practically complete withering)) and the “B (bulrush) weedkilling efficacy grade” value (bulrush [14]) was 5 (weed kill ratio 90% or more, (practically complete withering)). The “c (corn) effect on crop grade” value (corn [15]) was 5 (weed kill ratio 90% or more, (practically complete withering)), the “d (soybean) effect on crop grade” value (soybean [16]) was 0 (weed kill ratio 5% or less (practically no effect)) and the “P (birds-eye speedwell) weedkilling efficacy grade” value (birds-eye speedwell [17]) was 3 (weed kill ratio 40% or more, less than 70%). The “O (catchweed) weedkilling efficacy grade” value (catchweed [18]) was 4 (weed kill ratio 70% or more, less than 90%), the “H (black-grass) weedkilling efficacy grade” value (black-grass [19]) was 5 (weed kill ratio 90% or more, (practically complete withering)) and the “D (crabgrass) weedkilling efficacy grade” value (crabgrass [20]) was 5 (weed kill ratio 90% or more, (practically complete withering)). The “I (Italian ryegrass) weedkilling efficacy grade” value (Italian ryegrass [21]) was 5 (weed kill ratio 90% or more, (practically complete withering)), the “A (barnyard grass) weedkilling efficacy grade” value (barnyard grass [22]) was 5 (weed kill ratio 90% or more, (practically complete withering)) and the “e (wheat) effect on crop grade” value (wheat [23]) was 3 (weed kill ratio 40% or more, less than 70%). The “C (oval-leafed pondweed) weedkilling efficacy grade” value (oval-leafed pondweed [24]) was 5 (weed kill ratio 90% or more, (practically complete withering)), the “L (redroot pigweed) weedkilling efficacy grade” value (redroot pigweed [25]) was 4 (weed kill ratio 70% or more, less than 90%) and the “N (chickweed) weedkilling efficacy grade” value (chickweed [26]) was 3 (weed kill ratio 40% or more, less than 70%). For the same compound, the “I (Italian ryegrass) weedkilling efficacy grade” value (Italian ryegrass [27]) was 1 (weed kill ratio 5% or more, less than 20%), the “E (green foxtail) weedkilling efficacy grade” value (green foxtail [28]) was 5 (weed kill ratio 90% or more, (practically complete withering)) and the “M (fig-leafed goosefoot) weedkilling efficacy grade” value (fig-leafed goosefoot [29]) was 4 (weed kill ratio 70% or more, less than 90%). For the same compound, the “D (crabgrass) weedkilling efficacy grade” value (crabgrass [30]) was 5 (weed kill ratio 90% or more, (practically complete withering)), the “B (bulrush) weedkilling efficacy grade” value (bulrush [31]) was 5 (weed kill ratio 90% or more, (practically complete withering)) and the “K (Indian mallow) weedkilling efficacy grade” value (Indian mallow [32]) was 0 (weed kill ratio 5% or less (practically no effect)). For the same compound, the “C (oval-leafed pondweed) weedkilling efficacy grade” value (oval-leafed pondweed [33]) was 4 (weed kill ratio 70% or more, less than 90%), the “L (redroot pigweed) weedkilling efficacy grade” value (redroot pigweed [34]) was 5 (weed kill ratio 90% or more, (practically complete withering)) and the “P (birds-eye speedwell) weedkilling efficacy grade” value (birds-eye speedwell [35]) was 5 (weed kill ratio 90% or more, (practically complete withering)). The “A (barnyard grass) weedkilling efficacy grade” value (barnyard grass [36]) was 5 (weed kill ratio 90% or more, (practically complete withering)).
